# Results taken from patent publication US11377442B2, “Small molecule agonists and antagonists of NR2F6 activity” (ZANDER THERAPEUTICS, INC., priority 2016, dated 2022).
# Like-named read-outs stand apart in the source and are kept apart here.
# How the values were obtained:
# Type in all cases: cell-based
# NR2F6 = target: T1, NR2F6 (Homo sapiens, UniProt P10588); assay: NR2F6 agonist screening, Firefly signal cmpd/DMSO
# T1 construct: expressed in transfected cells; also transient transfection
# T1 sequence (P10588 1-404): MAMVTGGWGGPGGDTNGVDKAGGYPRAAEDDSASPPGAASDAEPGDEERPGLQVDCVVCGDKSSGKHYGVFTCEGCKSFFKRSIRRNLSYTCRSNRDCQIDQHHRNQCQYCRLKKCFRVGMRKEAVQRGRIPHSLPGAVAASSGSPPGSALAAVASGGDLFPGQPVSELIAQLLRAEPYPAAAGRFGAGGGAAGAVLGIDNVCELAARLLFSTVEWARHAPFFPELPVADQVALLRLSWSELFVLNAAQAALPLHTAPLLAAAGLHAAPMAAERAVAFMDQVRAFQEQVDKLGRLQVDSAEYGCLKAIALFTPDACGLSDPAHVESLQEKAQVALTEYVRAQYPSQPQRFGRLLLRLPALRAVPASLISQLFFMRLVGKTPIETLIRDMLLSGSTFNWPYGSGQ
# Renilla = Renilla signal in NR2F6 agonist screening, cmpd/DMSO; details: Renilla, F4
# HEK293 pGL4 = assay: Firefly_pGL signal, cmpd/DMSO (pGL4 control cells); details: Homo sapiens
# NR2F6 LBD = target: T2, NR2F6 LBD (Homo sapiens, UniProt P10588); assay: NR2F6 LBD transient transfection; details: LBD
# T2 construct: expressed in transfected cells
# T2 sequence (P10588 165-393 limits assumed): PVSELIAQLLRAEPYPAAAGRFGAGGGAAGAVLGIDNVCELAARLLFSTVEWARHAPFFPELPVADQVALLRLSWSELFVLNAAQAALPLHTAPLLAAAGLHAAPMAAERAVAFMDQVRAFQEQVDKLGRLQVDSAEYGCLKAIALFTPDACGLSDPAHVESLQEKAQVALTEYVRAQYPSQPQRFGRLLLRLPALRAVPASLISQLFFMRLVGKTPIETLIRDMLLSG
# Outline: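 LBD-transfected cells treated at 40, 10, 2 and 0.5 μM (4 replicates); cytotoxicity measured in parallel, normalized to DMSO (0%) and zero signal (100%). Higher concentrations excluded where signal loss reflected toxicity.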
# [1] = read-out: Renilla, F4, cmpd/DMSO (mean)
# [2] = 1% FBS, read-out: Renilla, F4, 1% FBS, cmpd/DMSO (mean)
# [3] = 10% FBS, read-out: Renilla, F4, 10% FBS, cmpd/DMSO (mean)
# [4] = HEK293, 0.5 uM, pGL4, read-out: Firefly pGL4, cmpd/DMSO (mean)
# [5] = HEK293, 2 uM, pGL4, read-out: Firefly pGL4, cmpd/DMSO (mean)
# [6] = HEK293, 10 uM, pGL4, read-out: Firefly pGL4, cmpd/DMSO (mean)
# [7] = HEK293, 40 uM, pGL4, read-out: Firefly pGL4, cmpd/DMSO (mean)
# [8] = HEK293, pGL4, 1% FBS, 0.5 uM, read-out: Firefly, pGL4, 1% FBS, cmpd/DMSO (mean)
# [9] = HEK293, pGL4, 1% FBS, 2 uM, read-out: Firefly, pGL4, 1% FBS, cmpd/DMSO (mean)
# [10] = HEK293, pGL4, 1% FBS, 10 uM, read-out: Firefly, pGL4, 1% FBS, cmpd/DMSO (mean)
# [11] = HEK293, pGL4, 1% FBS, 40 uM, read-out: Firefly, pGL4, 1% FBS, cmpd/DMSO (mean)
# [12] = HEK293, pGL4, 10% FBS, 0.5 uM, read-out: Firefly, pGL4, 10% FBS, cmpd/DMSO (mean)
# [13] = HEK293, pGL4, 10% FBS, 2 uM, read-out: Firefly, pGL4, 10% FBS, cmpd/DMSO (mean)
# [14] = HEK293, pGL4, 10% FBS, 10 uM, read-out: Firefly, pGL4, 10% FBS, cmpd/DMSO (mean)
# [15] = HEK293, pGL4, 10% FBS, 40 uM, read-out: Firefly, pGL4, 10% FBS, cmpd/DMSO (mean)
structure (smiles),measurement,setting,value
CCCN[C@H]1CS(=O)(=O)C[C@@H]1S(=O)(=O)c1ccc(Cl)cc1 [Compound D117],"Firefly F4, cmpd/DMSO (mean)",NR2F6; 0.5 uM,1.1
same,"Firefly F4, cmpd/DMSO (mean)",NR2F6; 2 uM,2.2
same,"Firefly F4, cmpd/DMSO (mean)",NR2F6; 10 uM,4.7
same,"Firefly F4, cmpd/DMSO (mean)",NR2F6; 40 uM,0.5
same,"F4, Firefly/Renilla for S/B(F4) > 3","NR2F6; 1% FBS, 10 uM",3.4
same,"Firefly, F4/pGL4 for S/B(F4) > 3","NR2F6; 1% FBS, 10 uM",3.2
same,"F4, Firefly/Renilla for S/B(F4) > 3","NR2F6; 10% FBS, 10 uM",2.3
same,"Firefly, F4/pGL4 for S/B(F4) > 3","NR2F6; 10% FBS, 10 uM",1.9
same,"Firefly, F4, 1% FBS, cmpd/DMSO (mean)","NR2F6; 1% FBS, 0.5 uM",0.9
same,"Firefly, F4, 1% FBS, cmpd/DMSO (mean)","NR2F6; 1% FBS, 2 uM",2.1
same,"Firefly, F4, 1% FBS, cmpd/DMSO (mean)","NR2F6; 1% FBS, 10 uM",5.9
same,"Firefly, F4, 1% FBS, cmpd/DMSO (mean)","NR2F6; 1% FBS, 40 uM",0.1
same,"Firefly, F4, 10% FBS, cmpd/DMSO (mean)","NR2F6; 10% FBS, 0.5 uM",0.9
same,"Firefly, F4, 10% FBS, cmpd/DMSO (mean)","NR2F6; 10% FBS, 2 uM",1.2
same,"Firefly, F4, 10% FBS, cmpd/DMSO (mean)","NR2F6; 10% FBS, 10 uM",4.1
same,"Firefly, F4, 10% FBS, cmpd/DMSO (mean)","NR2F6; 10% FBS, 40 uM",2.9
same,fold induction at 0.5 µM,Renilla; [1],1
same,fold induction at 2 µM,Renilla; [1],1.3
same,fold induction at 10 µM,Renilla; [1],1.7
same,fold induction at 40 µM,Renilla; [1],0.4
same,fold induction at 0.5 µM,Renilla; [2],1
same,fold induction at 2 µM,Renilla; [2],1.4
same,fold induction at 10 µM,Renilla; [2],1.7
same,fold induction at 40 µM,Renilla; [2],0.8
same,fold induction at 0.5 µM,Renilla; [3],1
same,fold induction at 2 µM,Renilla; [3],1
same,fold induction at 10 µM,Renilla; [3],1.8
same,fold induction at 40 µM,Renilla; [3],2.4
same,fold induction at 0.5 µM,HEK293 pGL4; [4],1
same,fold induction at 2 µM,HEK293 pGL4; [5],1.4
same,fold induction at 10 µM,HEK293 pGL4; [6],4.6
same,fold induction at 40 µM,HEK293 pGL4; [7],0.3
same,fold induction at 0.5 µM,HEK293 pGL4; [8],1
same,fold induction at 2 µM,HEK293 pGL4; [9],1.4
same,fold induction at 10 µM,HEK293 pGL4; [10],1.9
same,fold induction at 40 µM,HEK293 pGL4; [11],0.6
same,fold induction at 0.5 µM,HEK293 pGL4; [12],1.1
same,fold induction at 2 µM,HEK293 pGL4; [13],1.6
same,fold induction at 10 µM,HEK293 pGL4; [14],2.2
same,fold induction at 40 µM,HEK293 pGL4; [15],1.2
same,"Firefly LBD, cmpd/DMSO (mean)",NR2F6 LBD; 0.5 uM,1.1
same,"Firefly LBD, cmpd/DMSO (mean)",NR2F6 LBD; 2 uM,2.1
same,"Firefly LBD, cmpd/DMSO (mean)",NR2F6 LBD; 10 uM,4.2
same,"Firefly LBD, cmpd/DMSO (mean)",NR2F6 LBD; 40 uM,0.2
CCCCN[C@H]1CS(=O)(=O)C[C@@H]1S(=O)(=O)c1ccc(Cl)cc1 [Compound D119],"Firefly F4, cmpd/DMSO (mean)",NR2F6; 0.5 uM,0.9
same,"Firefly F4, cmpd/DMSO (mean)",NR2F6; 2 uM,2.0
same,"Firefly F4, cmpd/DMSO (mean)",NR2F6; 10 uM,5.3
same,"Firefly F4, cmpd/DMSO (mean)",NR2F6; 40 uM,0.6
same,"F4, Firefly/Renilla for S/B(F4) > 3","NR2F6; 1% FBS, 10 uM",2.5
same,"Firefly, F4/pGL4 for S/B(F4) > 3","NR2F6; 1% FBS, 10 uM",1.9
same,"F4, Firefly/Renilla for S/B(F4) > 3","NR2F6; 10% FBS, 10 uM",2.7
same,"Firefly, F4/pGL4 for S/B(F4) > 3","NR2F6; 10% FBS, 10 uM",3.3
same,"Firefly, F4, 1% FBS, cmpd/DMSO (mean)","NR2F6; 1% FBS, 0.5 uM",1.5
same,"Firefly, F4, 1% FBS, cmpd/DMSO (mean)","NR2F6; 1% FBS, 2 uM",1.8
same,"Firefly, F4, 1% FBS, cmpd/DMSO (mean)","NR2F6; 1% FBS, 10 uM",4.4
same,"Firefly, F4, 1% FBS, cmpd/DMSO (mean)","NR2F6; 1% FBS, 40 uM",0.2
same,"Firefly, F4, 10% FBS, cmpd/DMSO (mean)","NR2F6; 10% FBS, 0.5 uM",1.5
same,"Firefly, F4, 10% FBS, cmpd/DMSO (mean)","NR2F6; 10% FBS, 2 uM",1.1
same,"Firefly, F4, 10% FBS, cmpd/DMSO (mean)","NR2F6; 10% FBS, 10 uM",7.3
same,"Firefly, F4, 10% FBS, cmpd/DMSO (mean)","NR2F6; 10% FBS, 40 uM",1.6
same,fold induction at 0.5 µM,Renilla; [1],1.2
same,fold induction at 2 µM,Renilla; [1],1.2
same,fold induction at 10 µM,Renilla; [1],1.6
same,fold induction at 40 µM,Renilla; [1],0.2
same,fold induction at 0.5 µM,Renilla; [2],1.1
same,fold induction at 2 µM,Renilla; [2],1.1
same,fold induction at 10 µM,Renilla; [2],1.8
same,fold induction at 40 µM,Renilla; [2],0.4
same,fold induction at 0.5 µM,Renilla; [3],1.4
same,fold induction at 2 µM,Renilla; [3],1.5
same,fold induction at 10 µM,Renilla; [3],2.7
same,fold induction at 40 µM,Renilla; [3],1.3
same,fold induction at 0.5 µM,HEK293 pGL4; [4],1.1
same,fold induction at 2 µM,HEK293 pGL4; [5],1.5
same,fold induction at 10 µM,HEK293 pGL4; [6],3.9
same,fold induction at 40 µM,HEK293 pGL4; [7],0.6
same,fold induction at 0.5 µM,HEK293 pGL4; [8],1.2
same,fold induction at 2 µM,HEK293 pGL4; [9],1.4
same,fold induction at 10 µM,HEK293 pGL4; [10],2.4
same,fold induction at 40 µM,HEK293 pGL4; [11],0.7
same,fold induction at 0.5 µM,HEK293 pGL4; [12],1.1
same,fold induction at 2 µM,HEK293 pGL4; [13],1.2
same,fold induction at 10 µM,HEK293 pGL4; [14],2.2
same,fold induction at 40 µM,HEK293 pGL4; [15],0.5
same,"Firefly LBD, cmpd/DMSO (mean)",NR2F6 LBD; 0.5 uM,1.0
same,"Firefly LBD, cmpd/DMSO (mean)",NR2F6 LBD; 2 uM,1.5
same,"Firefly LBD, cmpd/DMSO (mean)",NR2F6 LBD; 10 uM,3.4
same,"Firefly LBD, cmpd/DMSO (mean)",NR2F6 LBD; 40 uM,0.5
